{
  "source": "PubChem BioAssay AID330",
  "about": "(DTP/NCI, 2004)",
  "tested_on": "P388 leukemia ip, CD2F1 mice, survival T/C",
  "experiment": "NCI In Vivo Anticancer Drug Screen. Data for tumor model P388 Leukemia (intraperitoneal) in CD2F1 (CDF1) mice",
  "conditions": "endpoint: median survival time, higher = longer survival",
  "procedure,_shortened": "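Mice carrying the transplanted tumor received test compound or vehicle. Survival was recorded in each group, and the value is the treated-group measurement divided by that of the vehicle-treated control group.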",
  "key": {"[1]": {"conditions": "dose: 100.0 mg/kg/injection, schedule: Q04DX003 (ip), vehicle: saline with Tween-80"}, "[2]": {"conditions": "dose: 200.0 mg/kg/injection, schedule: Q04DX003 (ip), vehicle: saline with Tween-80"}, "[3]": {"conditions": "dose: 400.0 mg/kg/injection, schedule: Q04DX003 (ip), vehicle: saline with Tween-80"}, "[4]": {"conditions": "dose: 50.0 mg/kg/injection, schedule: Q01DX005 (ip), vehicle: saline with Tween-80"}, "[5]": {"conditions": "dose: 60.0 mg/kg/injection, schedule: Q01DX005 (ip), vehicle: Klucel (hydroxypropylcellulose) (HPC)"}, "[6]": {"conditions": "dose: 120.0 mg/kg/injection, schedule: Q01DX005 (ip), vehicle: Klucel (hydroxypropylcellulose) (HPC)"}, "[7]": {"conditions": "dose: 240.0 mg/kg/injection, schedule: Q01DX005 (ip), vehicle: Klucel (hydroxypropylcellulose) (HPC)"}, "[8]": {"conditions": "dose: 100.0 mg/kg/injection, schedule: Q01DX009 (ip), vehicle: saline with Tween-80"}, "[9]": {"conditions": "dose: 200.0 mg/kg/injection, schedule: Q01DX009 (ip), vehicle: saline with Tween-80"}, "[10]": {"conditions": "dose: 100.0 mg/kg/injection, schedule: Q01DX005 (ip), vehicle: saline with Tween-80"}, "[11]": {"conditions": "dose: 200.0 mg/kg/injection, schedule: Q01DX005 (ip), vehicle: saline with Tween-80"}},
  "note": "“And” between values parts separate entries of the source, which are not always exact repeats. Identical values can stand only once. Toxic doses and inconclusive results are not listed.",
  "data": [
    {"compound": "Clc1ccc(OCCBr)cc1", "values": [
      {"measurement": "T/C", "setting": "dose: 50.0 mg/kg/injection, schedule: Q04DX003 (ip), vehicle: saline with Tween-80", "value": "105 % of control"},
      {"measurement": "T/C", "setting": "[1]", "value": "101 % of control"},
      {"measurement": "T/C", "setting": "[2]", "value": "105 % of control"},
      {"measurement": "T/C", "setting": "[3]", "value": "99 % of control"}
    ]},
    {"compound": "CCOc1ccccc1NC1=C(Cl)C(=O)c2ccccc2C1=O", "values": [
      {"measurement": "T/C", "setting": "dose: 7.5 mg/kg/injection, schedule: Q01DX005 (ip), vehicle: saline with Tween-80", "value": "100 % of control"},
      {"measurement": "T/C", "setting": "dose: 15.0 mg/kg/injection, schedule: Q01DX005 (ip), vehicle: saline with Tween-80", "value": "94 % of control"},
      {"measurement": "T/C", "setting": "dose: 30.0 mg/kg/injection, schedule: Q01DX005 (ip), vehicle: saline with Tween-80", "value": "97 % of control"},
      {"measurement": "T/C", "setting": "dose: 60.0 mg/kg/injection, schedule: Q01DX005 (ip), vehicle: saline with Tween-80", "value": "103 % of control"}
    ]},
    {"compound": "O=C(NCC(O)CNC(=O)Nc1ccc(C2=NCC(O)CN2)cc1)Nc1ccc(C2=NCC(O)CN2)cc1", "note": "(centres undefined)", "values": [
      {"measurement": "T/C", "setting": "dose: 12.5 mg/kg/injection, schedule: Q01DX005 (ip), vehicle: saline with Tween-80", "value": "95 % of control"},
      {"measurement": "T/C", "setting": "dose: 25.0 mg/kg/injection, schedule: Q01DX005 (ip), vehicle: saline with Tween-80", "value": "100 % of control"},
      {"measurement": "T/C", "setting": "[4]", "value": "109 % of control and 97 % of control"}
    ]},
    {"compound": "CO[C@@]1([C@@H](Cl)c2ccccc2)C(=O)N(C)/C(=C\\c2ccccc2)C(=O)N1C", "values": [
      {"measurement": "T/C", "setting": "[5]", "value": "105 % of control"},
      {"measurement": "T/C", "setting": "[6]", "value": "92 % of control"},
      {"measurement": "T/C", "setting": "[7]", "value": "97 % of control"}
    ]},
    {"compound": "O=C(Nc1nncs1)c1ccncc1", "values": [
      {"measurement": "T/C", "setting": "dose: 50.0 mg/kg/injection, schedule: Q04DX002 (ip), vehicle: saline with Tween-80", "value": "104 % of control"},
      {"measurement": "T/C", "setting": "dose: 100.0 mg/kg/injection, schedule: Q04DX002 (ip), vehicle: saline with Tween-80", "value": "112 % of control"},
      {"measurement": "T/C", "setting": "dose: 200.0 mg/kg/injection, schedule: Q04DX002 (ip), vehicle: saline with Tween-80", "value": "157 % of control"},
      {"measurement": "T/C", "setting": "dose: 400.0 mg/kg/injection, schedule: Q04DX002 (ip), vehicle: saline with Tween-80", "value": "153 % of control and 164 % of control"}
    ]},
    {"compound": "COc1ccc(Br)cc1", "values": [
      {"measurement": "T/C", "setting": "dose: 50.0 mg/kg/injection, schedule: Q01DX009 (ip), vehicle: saline with Tween-80", "value": "104 % of control"},
      {"measurement": "T/C", "setting": "dose: 50.0 mg/kg/injection, schedule: Q04DX003 (ip), vehicle: saline", "value": "100 % of control"},
      {"measurement": "T/C", "setting": "[8]", "value": "118 % of control"},
      {"measurement": "T/C", "setting": "dose: 100.0 mg/kg/injection, schedule: Q04DX003 (ip), vehicle: saline", "value": "105 % of control"},
      {"measurement": "T/C", "setting": "[9]", "value": "109 % of control"},
      {"measurement": "T/C", "setting": "dose: 200.0 mg/kg/injection, schedule: Q04DX003 (ip), vehicle: saline", "value": "110 % of control"}
    ]},
    {"compound": "CCCCCCCCCCC(=O)CCCC", "values": [
      {"measurement": "T/C", "setting": "[8]", "value": "109 % of control"},
      {"measurement": "T/C", "setting": "[1]", "value": "100 % of control"},
      {"measurement": "T/C", "setting": "[9]", "value": "104 % of control"},
      {"measurement": "T/C", "setting": "[2]", "value": "95 % of control"},
      {"measurement": "T/C", "setting": "dose: 400.0 mg/kg/injection, schedule: Q01DX009 (ip), vehicle: saline with Tween-80", "value": "109 % of control"},
      {"measurement": "T/C", "setting": "[3]", "value": "95 % of control"}
    ]},
    {"compound": "NS(=O)(=O)c1nc2nc[nH]c(=O)c2[nH]1", "values": [
      {"measurement": "T/C", "setting": "[4]", "value": "100 % of control"},
      {"measurement": "T/C", "setting": "[10]", "value": "106 % of control"},
      {"measurement": "T/C", "setting": "[11]", "value": "101 % of control"}
    ]},
    {"compound": "OCC1CCCN1", "note": "(centres undefined)", "values": [
      {"measurement": "T/C", "setting": "dose: 100.0 mg/kg/injection, schedule: Q04DX002 (ip), vehicle: saline", "value": "102 % of control"},
      {"measurement": "T/C", "setting": "dose: 200.0 mg/kg/injection, schedule: Q04DX002 (ip), vehicle: saline", "value": "96 % of control"}
    ]},
    {"compound": "c1ccc(Nc2nn[nH]n2)cc1", "values": [
      {"measurement": "T/C", "setting": "dose: 50.0 mg/kg/injection, schedule: Q01DX005 (ip), vehicle: Klucel (hydroxypropylcellulose) (HPC)", "value": "109 % of control"},
      {"measurement": "T/C", "setting": "dose: 100.0 mg/kg/injection, schedule: Q01DX005 (ip), vehicle: Klucel (hydroxypropylcellulose) (HPC)", "value": "107 % of control"},
      {"measurement": "T/C", "setting": "dose: 200.0 mg/kg/injection, schedule: Q01DX005 (ip), vehicle: Klucel (hydroxypropylcellulose) (HPC)", "value": "109 % of control"}
    ]},
    {"compound": "CC(Nc1ncccn1)Nc1ncccn1", "values": [
      {"measurement": "T/C", "setting": "[5]", "value": "107 % of control"},
      {"measurement": "T/C", "setting": "[6]", "value": "102 % of control"},
      {"measurement": "T/C", "setting": "[7]", "value": "111 % of control"}
    ]},
    {"compound": "O=C(Nc1ccccc1)OC(CS(=O)(=O)c1ccccc1)C(Cl)(Cl)Cl", "note": "(centres undefined)", "values": [
      {"measurement": "T/C", "setting": "[4]", "value": "92 % of control"},
      {"measurement": "T/C", "setting": "[10]", "value": "96 % of control"},
      {"measurement": "T/C", "setting": "[11]", "value": "95 % of control"}
    ]},
    {"compound": "CN(C)P1(=O)OCC(C(C)(C)C)CN1C", "note": "(centres undefined)", "values": [
      {"measurement": "T/C", "setting": "dose: 50.0 mg/kg/injection, schedule: Q01DX009 (ip), vehicle: Klucel (hydroxypropylcellulose) (HPC)", "value": "100 % of control"},
      {"measurement": "T/C", "setting": "dose: 100.0 mg/kg/injection, schedule: Q01DX009 (ip), vehicle: Klucel (hydroxypropylcellulose) (HPC)", "value": "107 % of control"}
    ]},
    {"compound": "COC(=O)CC1(C(=O)OC)c2ccc3ccccc3c2N2CCCC21", "note": "(centres undefined)", "values": [
      {"measurement": "T/C", "setting": "dose: 100.0 mg/kg/injection, schedule: Q01DX001 (ip), vehicle: saline", "value": "102 % of control"},
      {"measurement": "T/C", "setting": "dose: 200.0 mg/kg/injection, schedule: Q01DX001 (ip), vehicle: saline", "value": "100 % of control"},
      {"measurement": "T/C", "setting": "dose: 400.0 mg/kg/injection, schedule: Q01DX001 (ip), vehicle: saline", "value": "100 % of control"}
    ]}
  ]
}
